Experimental data published in patent publication US9617538B2, “Heptamer-type small guide nucleic acids inducing apoptosis of human leukemia cells” (NIIGATA UNIVERSITY OF PHARMACY AND APPLIED LIFE SCIENCE, priority 2011, dated 2017).
{P} = phosphate

Columns and labels:
[1] = tested on: human myeloma cell line KMM1; test: MTT assay, KMM1; assay type: cell-based; settings: sgRNA 1 μM, no delivery reagent, 72 hours (3 days), vs sgRNA non-administered group
Method: (§1) Each sgRNA (final concentration 1 μM) was added to a 96-well culture plate containing human cancer cell lines (1,000 cells/100 μl medium), without using a reagent for the delivery of the sgRNA into the cells. The cells were then cultured in a 37° C. CO2 incubator. […] Leukemia cells HL60, and myeloma cells KMM1 and RPMI-8226 were used as the human cancer cell lines, and the viable cell count was compared with that of an sgRNA non-administered group. As controls, each sgRNA was introduced to normal cells HEK293, and the same MTT assay was performed. • (1-3) Flow Cytometry Experiment

[2] = tested on: human leukemia cell line HL60; test: MTT assay, HL60; assay type: cell-based; settings: sgRNA 1 μM, no delivery reagent, 72 hours (3 days), vs sgRNA non-administered group
Method: as §1

[3] = tested on: human myeloma cell line RPMI-8226; test: MTT assay, RPMI-8226; assay type: cell-based; settings: sgRNA 1 μM, no delivery reagent, 72 hours (3 days), vs sgRNA non-administered group
Method: as §1

[4] = tested on: human leukemia cells HL60; test: Mouse xenograft experiment; assay type: in vivo, immunodeficient nude mice; settings: HL60 subcutaneous xenograft; sgRNA 100 μM, 10 μl at transplantation site once daily for 5 days; difference of median survival time vs non-administered or ineffective-sgRNA group
Method: 2×10^6 human leukemia cells HL60 were subcutaneously transplanted into immunodeficient nude mice with an extracellular matrix. Each heptamer-type sgRNA (100 μM) was continuously administered to the transplantation site in a dose of 10 μl, once each day for 5 days, and the tumor volume was measured every day. The mice were euthanized upon the tumor volume reaching 1,500 mm^3. The experiment was conducted with groups of 6 to 8 mice, and the difference between the median value of the survival time of each sgRNA administered group and the median value of the survival time of the non-administered group (or a group administered with the ineffective heptamer-type sgRNA) was calculated as the extended lifetime due to the heptamer-type sgRNA. • (2) Results • (2-1) MTT Assay

Substance: Hep1(HAGE): heptamer-type sgRNA 5′-UCUUUCC-3′, phosphorylated at the 5′ and 3′ ends, 2′-O-methylated (all 2'-O-methyl, 5' {P}, 3' {P}, backbone not given here)
- MTT assay (Percentage reduction of viable cells) KMM1 [1]: 61%
- MTT assay (Percentage reduction of viable cells) HL60 [2]: 91%
- MTT assay (Percentage reduction of viable cells) RPMI [3]: 5%

Substance: Hep1(MYC): heptamer-type sgRNA 5′-CAGCUCG-3′, phosphorylated at the 5′ and 3′ ends, 2′-O-methylated (all 2'-O-methyl, 5' {P}, 3' {P}, backbone not given here)
- MTT assay (Percentage reduction of viable cells) KMM1 [1]: 56%
- MTT assay (Percentage reduction of viable cells) HL60 [2]: 90%
- MTT assay (Percentage reduction of viable cells) RPMI [3]: 16%

Substance: Hep1(bcl-2): heptamer-type sgRNA 5′-GGGCCAG-3′, phosphorylated at the 5′ and 3′ ends, 2′-O-methylated (all 2'-O-methyl, 5' {P}, 3' {P}, backbone not given here)
- MTT assay (Percentage reduction of viable cells) KMM1 [1]: 0%
- MTT assay (Percentage reduction of viable cells) HL60 [2]: 88%
- Mouse xenograft experiment (Extended lifetime) [4]: (+22 days)
- MTT assay (Percentage reduction of viable cells) RPMI [3]: 18%

Substance: Hep2(HAGE): heptamer-type sgRNA 5′-UAUAUUU-3′, phosphorylated at the 5′ and 3′ ends, 2′-O-methylated (all 2'-O-methyl, 5' {P}, 3' {P}, backbone not given here)
- MTT assay (Percentage reduction of viable cells) KMM1 [1]: 72%
- MTT assay (Percentage reduction of viable cells) HL60 [2]: 94%
- MTT assay (Percentage reduction of viable cells) RPMI [3]: 5%

Substance: Hep2(PKCb): heptamer-type sgRNA 5′-CCGGGGC-3′, phosphorylated at the 5′ and 3′ ends, 2′-O-methylated (all 2'-O-methyl, 5' {P}, 3' {P}, backbone not given here)
- MTT assay (Percentage reduction of viable cells) KMM1 [1]: 48%
- MTT assay (Percentage reduction of viable cells) HL60 [2]: 93%
- MTT assay (Percentage reduction of viable cells) RPMI [3]: 75%

Substance: Hep2(bcl-2): heptamer-type sgRNA 5′-GGGGGCG-3′, phosphorylated at the 5′ and 3′ ends, 2′-O-methylated (all 2'-O-methyl, 5' {P}, 3' {P}, backbone not given here)
- MTT assay (Percentage reduction of viable cells) KMM1 [1]: 24%
- MTT assay (Percentage reduction of viable cells) HL60 [2]: 99%
- Mouse xenograft experiment (Extended lifetime) [4]: (+19 days)
- MTT assay (Percentage reduction of viable cells) RPMI [3]: 69%

Substance: Hep3(MYC): heptamer-type sgRNA 5′-GCAGCUC-3′, phosphorylated at the 5′ and 3′ ends, 2′-O-methylated (5' {P}, 3' {P}, sugars by position and backbone not given here; 2'-O-methylated)
- MTT assay (Percentage reduction of viable cells) KMM1 [1]: 67%
- MTT assay (Percentage reduction of viable cells) HL60 [2]: 90%
- MTT assay (Percentage reduction of viable cells) RPMI [3]: 2%

Substance: Hep5(IRF4): heptamer-type sgRNA 5′-GGGUCCU-3′, phosphorylated at the 5′ and 3′ ends, 2′-O-methylated (5' {P}, 3' {P}, sugars by position and backbone not given here; 2'-O-methylated)
- MTT assay (Percentage reduction of viable cells) KMM1 [1]: 69%
- MTT assay (Percentage reduction of viable cells) HL60 [2]: 86%
- MTT assay (Percentage reduction of viable cells) RPMI [3]: 6%

Substance: Hep5(MYC): heptamer-type sgRNA 5′-GCUGCUG-3′, phosphorylated at the 5′ and 3′ ends, 2′-O-methylated (5' {P}, 3' {P}, sugars by position and backbone not given here; 2'-O-methylated)
- MTT assay (Percentage reduction of viable cells) KMM1 [1]: 72%
- MTT assay (Percentage reduction of viable cells) HL60 [2]: 86%
- MTT assay (Percentage reduction of viable cells) RPMI [3]: 0%

Substance: Hep5(PRAME): heptamer-type sgRNA 5′-GCUCUGC-3′, phosphorylated at the 5′ and 3′ ends, 2′-O-methylated (5' {P}, 3' {P}, sugars by position and backbone not given here; 2'-O-methylated)
- MTT assay (Percentage reduction of viable cells) KMM1 [1]: 17%
- MTT assay (Percentage reduction of viable cells) HL60 [2]: 94%
- MTT assay (Percentage reduction of viable cells) RPMI [3]: 54%

Substance: Hep6(PRAME): heptamer-type sgRNA 5′-UCCAGGU-3′, phosphorylated at the 5′ and 3′ ends, 2′-O-methylated (all 2'-O-methyl, 5' {P}, 3' {P}, backbone not given here)
- MTT assay (Percentage reduction of viable cells) KMM1 [1]: 15%
- MTT assay (Percentage reduction of viable cells) HL60 [2]: 95%
- MTT assay (Percentage reduction of viable cells) RPMI [3]: 10%

Substance: Hep7(WT1): heptamer-type sgRNA 5′-CUGCUUU-3′, phosphorylated at the 5′ and 3′ ends, 2′-O-methylated (5' {P}, 3' {P}, sugars by position and backbone not given here; 2'-O-methylated)
- MTT assay (Percentage reduction of viable cells) KMM1 [1]: 24%
- MTT assay (Percentage reduction of viable cells) HL60 [2]: 98%
- MTT assay (Percentage reduction of viable cells) RPMI [3]: 46%

Substance: Hep8(FGFR3): heptamer-type sgRNA 5′-AUCUUCA-3′, phosphorylated at the 5′ and 3′ ends, 2′-O-methylated (all 2'-O-methyl, 5' {P}, 3' {P}, backbone not given here)
- MTT assay (Percentage reduction of viable cells) KMM1 [1]: 78%
- MTT assay (Percentage reduction of viable cells) HL60 [2]: 87%
- Mouse xenograft experiment (Extended lifetime) [4]: (+10 days)
- MTT assay (Percentage reduction of viable cells) RPMI [3]: 76%

Substance: Hep9(FGFR3): heptamer-type sgRNA 5′-CACCAGC-3′, phosphorylated at the 5′ and 3′ ends, 2′-O-methylated (all 2'-O-methyl, 5' {P}, 3' {P}, backbone not given here)
- MTT assay (Percentage reduction of viable cells) KMM1 [1]: 79%
- MTT assay (Percentage reduction of viable cells) HL60 [2]: 95%
- Mouse xenograft experiment (Extended lifetime) [4]: (+6 days)
- MTT assay (Percentage reduction of viable cells) RPMI [3]: 76%

Substance: Hep(YW): heptamer-type sgRNA 5′-GCAUGCG-3′, phosphorylated at the 5′ and 3′ ends, 2′-O-methylated (all 2'-O-methyl, 5' {P}, 3' {P}, backbone not given here)
- MTT assay (Percentage reduction of viable cells) KMM1 [1]: 59%
- MTT assay (Percentage reduction of viable cells) HL60 [2]: 96%
- MTT assay (Percentage reduction of viable cells) RPMI [3]: 0%
